Data published in patent US20220411419A1, “SMALL MOLECULE MODULATORS OF MHC-I” (RetroVirox, Inc., priority 2018, published 2022).

Legend:
[1] = test system: downmodulation of MHC-I molecules expressed on the surface of HIV infected SupT1 cells; test: cells; details: Human immunodeficiency virus 1, SUP-T1, read-out: EC50 for inhibition of MHC-I downmodulation utilizing the R1 parameter
[2] = in vitro; details: human, uninfected SupT1 cells

Structure (SMILES)	EC50 [1]	CC50 at 48 h [2]
Cc1ccc(N(Cc2ccccc2)C(=O)COc2cccc3c2OC(C)(C)C3)nn1 [Compound 36, N-Benzyl-2-((2,2-dimethyl-2,3-dihydrobenzofuran-7-yl)oxy)-N-(6-methylpyridazin-3-yl)acetamide]	23.6 µM	> 100 µM
CC1(C)Cc2cccc(OCC(=O)N(Cc3ccccc3)c3nc4c(s3)CCCC4)c2O1 [Compound 37, N-Benzyl-2-((2,2-dimethyl-2,3-dihydrobenzofuran-7-yl)oxy)-N-(4,5,6,7-tetrahydrobenzo[d]thiazol-2-yl)acetamide]	0.002 µM	0.15 µM
CC1(C)Cc2cccc(OCC(=O)N(Cc3ccccn3)c3nc4c(s3)CCCC4)c2O1 [Compound 38, 2-((2,2-Dimethyl-2,3-dihydrobenzofuran-7-yl)oxy)-N-(pyridin-2-ylmethyl)-N-(4,5,6,7-tetrahydrobenzo[d]thiazol-2-yl)acetamide]	0.006 µM	0.25 µM
Cc1cccc(CN(C(=O)COc2cccc3c2OC(C)(C)C3)c2nc3c(s2)CCCC3)n1 [Compound 39, 2-((2,2-Dimethyl-2,3-dihydrobenzofuran-7-yl)oxy)-N-((6-methylpyridin-2-yl)methyl)-N-(4,5,6,7-tetrahydrobenzo[d]thiazol-2-yl)acetamide]	0.02 µM	> 100 µM
Cc1ccnc(CN(C(=O)COc2cccc3c2OC(C)(C)C3)c2nc3c(s2)CCCC3)c1 [Compound 41, 2-((2,2-Dimethyl-2,3-dihydrobenzofuran-7-yl)oxy)-N-((4-methylpyridin-2-yl)methyl)-N-(4,5,6,7-tetrahydrobenzo[d]thiazol-2-yl)acetamide]	0.02 µM	> 125 µM
Cc1cccnc1CN(C(=O)COc1cccc2c1OC(C)(C)C2)c1nc2c(s1)CCCC2 [Compound 42, 2-((2,2-Dimethyl-2,3-dihydrobenzofuran-7-yl)oxy)-N-((3-methylpyridin-2-yl)methyl)-N-(4,5,6,7-tetrahydrobenzo[d]thiazol-2-yl)acetamide]	7.3 µM	> 125 µM
Cc1csc(N(Cc2ncccn2)C(=O)COc2cccc3c2OC(C)(C)C3)n1 [Compound 43, 2-((2,2-Dimethyl-2,3-dihydrobenzofuran-7-yl)oxy)-N-(4-methylthiazol-2-yl)-N-(pyrimidin-2-ylmethyl)acetamide]	0.71 µM	> 100 µM
CC1(C)Cc2cccc(OCC(=O)N(Cc3ncccn3)c3nc4c(s3)CCCC4)c2O1 [Compound 44, 2-((2,2-Dimethyl-2,3-dihydrobenzofuran-7-yl)oxy)-N-(pyrimidin-2-ylmethyl)-N-(4,5,6,7-tetrahydrobenzo[d]thiazol-2-yl)acetamide]	0.033 µM	> 125 µM
CC1(C)Cc2cccc(OCC(=O)N(Cc3ccccn3)c3nc4c(F)cccc4s3)c2O1 [Compound 45, 2-((2,2-Dimethyl-2,3-dihydrobenzofuran-7-yl)oxy)-N-(4-fluorobenzo[d]thiazol-2-yl)-N-(pyridin-2-ylmethyl)acetamide]	0.51 µM	> 100 µM
Cn1ccnc1CN(C(=O)COc1cccc2c1OC(C)(C)C2)c1nc2c(s1)CCCC2 [Compound 46, 2-((2,2-Dimethyl-2,3-dihydrobenzofuran-7-yl)oxy)-N-((1-methyl-1H-imidazol-2-yl)methyl)-N-(4,5,6,7-tetrahydrobenzo[d]thiazol-2-yl)acetamide]	0.059 µM	> 125 µM
Cc1ccc(CN(C(=O)COc2cccc3c2OC(C)(C)C3)c2ccc(C)cn2)cc1 [Compound 47, 2-((2,2-Dimethyl-2,3-dihydrobenzofuran-7-yl)oxy)-N-(4-methylbenzyl)-N-(5-methylpyridin-2-yl)acetamide]	5.5 µM	> 125 µM
Cc1ccc(N(Cc2ccccn2)C(=O)COc2cccc3c2OC(C)(C)C3)nc1 [Compound 48, 2-((2,2-Dimethyl-2,3-dihydrobenzofuran-7-yl)oxy)-N-(5-methylpyridin-2-yl)-N-(pyridin-2-ylmethyl)acetamide]	21 µM	> 100 µM
Cc1ccc(CN(C(=O)COc2cccc3c2OC(C)(C)C3)c2ccc(C)cn2)nc1 [Compound 49, 2-((2,2-Dimethyl-2,3-dihydrobenzofuran-7-yl)oxy)-N-(5-methylpyridin-2-yl)-N-((5-methylpyridin-2-yl)methyl)acetamide]	3.1 µM	> 125 µM
Cc1csc(N(CCc2ccccc2)C(=O)COc2cccc3c2OC(C)(C)C3)n1 [Compound 50, 2-((2,2-Dimethyl-2,3-dihydrobenzofuran-7-yl)oxy)-N-(4-methylthiazol-2-yl)-N-phenethylacetamide]	14 µM	> 125 µM
CC1(C)Cc2cccc(OCC(=O)N(Cc3ccc[nH]3)c3nc4c(s3)CCCC4)c2O1 [Compound 51, N-((1H-Pyrrol-2-yl)methyl)-2-((2,2-dimethyl-2,3-dihydrobenzofuran-7-yl)oxy)-N-(4,5,6,7-tetrahydrobenzo[d]thiazol-2-yl)acetamide]	0.015 µM	> 125 µM
CC1(C)Cc2cccc(OCC(=O)N(Cc3ccncc3)c3nc4c(s3)CCCC4)c2O1 [Compound 52, 2-((2,2-Dimethyl-2,3-dihydrobenzofuran-7-yl)oxy)-N-(pyridin-4-ylmethyl)-N-(4,5,6,7-tetrahydrobenzo[d]thiazol-2-yl)acetamide]	0.032 µM	1 µM

Structure (SMILES)	EC50 [1]	CC50 at 48 h [2]
COc1ccccc1N(C(=O)COc1cccc2c1OC(C)(C)C2)c1nc(C)cs1 [Compound 55, 2-((2,2-Dimethyl-2,3-dihydrobenzofuran-7-yl)oxy)-N-(2-methoxyphenyl)-N-(4-methylthiazol-2-yl)acetamide]	0.21 µM	> 125 µM
CCCN(C(=O)COc1cccc2c1OC(C)(C)C2)c1nc2c(s1)CCCC2 [Compound 57, 2-((2,2-dimethyl-2,3-dihydrobenzofuran-7-yl)oxy)-N-propyl-N-(4,5,6,7-tetrahydrobenzo[d]thiazol-2-yl)acetamide]	0.002 µM	> 125 µM
Cc1csc(N(C(=O)COc2cccc3c2OC(C)(C)C3)c2ccc(F)cc2)n1 [Compound 58, 2-((2,2-Dimethyl-2,3-dihydrobenzofuran-7-yl)oxy)-N-(4-fluorophenyl)-N-(4-methylthiazol-2-yl)acetamide]	0.29 µM	> 100 µM
Cc1csc(N(C(=O)COc2cccc3c2OC(C)(C)C3)c2ccc(Cl)cc2)n1 [Compound 59, N-(4-Chlorophenyl)-2-((2,2-dimethyl-2,3-dihydrobenzofuran-7-yl)oxy)-N-(4-methylthiazol-2-yl)acetamide]	0.86 µM	> 100 µM
Cc1csc(N(C(=O)COc2cccc3c2OC(C)(C)C3)c2ccccc2C)n1 [Compound 60, 2-((2,2-Dimethyl-2,3-dihydrobenzofuran-7-yl)oxy)-N-(4-methylthiazol-2-yl)-N-(o-tolyl)acetamide]	3.8 µM	> 100 µM
Cc1csc(N(C(=O)COc2cccc3c2OC(C)(C)C3)c2ccccc2Cl)n1 [Compound 61, N-(2-Chlorophenyl)-2-((2,2-dimethyl-2,3-dihydrobenzofuran-7-yl)oxy)-N-(4-methylthiazol-2-yl)acetamide]	2.17 µM	> 100 µM
COc1ccc(N(C(=O)COc2cccc3c2OC(C)(C)C3)c2nc(C)cs2)cc1 [Compound 62, 2-((2,2-Dimethyl-2,3-dihydrobenzofuran-7-yl)oxy)-N-(4-methoxyphenyl)-N-(4-methylthiazol-2-yl)acetamide]	0.48 µM	> 100 µM
C=CCN(C(=O)COc1cccc2c1OC(C)(C)C2)c1nc(C)cs1 [Compound 63, N-Allyl-2-((2,2-dimethyl-2,3-dihydrobenzofuran-7-yl)oxy)-N-(4-methylthiazol-2-yl)acetamide]	0.19 µM	> 100 µM
Cc1ccc(N(C(=O)COc2cccc3c2OC(C)(C)C3)c2nc(C)cs2)cc1 [Compound 64, 2-((2,2-Dimethyl-2,3-dihydrobenzofuran-7-yl)oxy)-N-(4-methylthiazol-2-yl)-N-(p-tolyl)acetamide]	0.57 µM	> 100 µM
Cc1csc(N(C(=O)COc2cccc3c2OC(C)(C)C3)c2cccnc2)n1 [Compound 65, 2-((2,2-Dimethyl-2,3-dihydrobenzofuran-7-yl)oxy)-N-(4-methylthiazol-2-yl)-N-(pyridin-3-yl)acetamide]	0.88 µM	> 125 µM
CC1(C)Cc2cccc(OCC(=O)Nc3ccc(Br)cn3)c2O1 [Compound 66, N-(5-Bromopyridin-2-yl)-2-((2,2-dimethyl-2,3-dihydrobenzofuran-7-yl)oxy) acetamide]	3.4 µM	> 125 µM
C=Cc1ccc(NC(=O)COc2cccc3c2OC(C)(C)C3)nc1 [Compound 67, 2-((2,2-dimethyl-2,3-dihydrobenzofuran-7-yl)oxy)-N-(5-vinylpyridin-2-yl)acetamide]	2.2 µM	> 125 µM
CCc1ccc(NC(=O)COc2cccc3c2OC(C)(C)C3)nc1 [Compound 68, 2-((2,2-dimethyl-2,3-dihydrobenzofuran-7-yl)oxy)-N-(5-ethylpyridin-2-yl)acetamide]	0.54 µM	> 125 µM
C=C(C)c1ccc(NC(=O)COc2cccc3c2OC(C)(C)C3)nc1 [Compound 69, 2-((2,2-Dimethyl-2,3-dihydrobenzofuran-7-yl)oxy)-N-(5-(prop-1-en-2-yl)pyridin-2-yl)acetamide]	5 µM	> 125 µM
CC(C)c1ccc(NC(=O)COc2cccc3c2OC(C)(C)C3)nc1 [Compound 70, 2-((2,2-Dimethyl-2,3-dihydrobenzofuran-7-yl)oxy)-N-(5-isopropylpyridin-2-yl)acetamide]	0.89 µM	> 125 µM
CC1(C)Cc2cccc(OCC(=O)Nc3ccc(C4CC4)cn3)c2O1 [Compound 71, N-(5-Cyclopropylpyridin-2-yl)-2-((2,2-dimethyl-2,3-dihydrobenzofuran-7-yl)oxy)acetamide]	0.15 µM	> 125 µM
